# In patent publication US6660910B1, “Selection marker” (Syngenta Mogen B.V., priority 1997, dated 2003):
# Assays:
# [1] = test system: cotyledons of Lycopersicon esculentum cv. Money Maker; assay: Transformation of tomato cotyledon explants with selection on cyanamide or kanamycin; type: cell-based; conditions: for No. of rooting shoots: rooting medium 50 mg/l cyanamide
# Protocol: Described below is the method used for transformation of cotyledons of Lycopersicon esculentum cv. Money Maker using Agrobacterium tumefaciens. The binary vectors and Agrobacteria strains for this transformation method are identical to those described above. Tomato seedlings were germinated on Germination Medium (GEM) under a 16 h light period (1700 lux) at 24° C. and a 8 h dark period at 21° C. (The contents of the various media can be found in Table 4). Cotyledon explants of 5 to 7 day old seedlings were cut on sterile filter paper soaked with Washing Medium (WAM) and placed on plates containing Cocultivation Medium (COM). The plates, each containing approximately 50 explants, were incubated overnight under the same conditions as described above.
# The pre incubated explants were carefully submerged in the Agrobacterium inoculum for 20 minutes.
# The explants were then blotted dry on sterile filter paper and incubated for 48 h on the second set of Cocultivation plates. In procession the explants were incubated for 72 h on plates containing Postcultivation Medium (POM) after which the explants were transferred to Shoot inducing Medium (SIM) containing several concentrations of cyanamide or kanamycin. Every three weeks the explants were subcultured on the same medium. After approximately 8-12 weeks shoots were excised and placed on Root inducing Medium (RIM). Shoots that were able to root were then transferred to Root inducing Medium containing 50 mg/l cyanamide or 30 mg/l kanamycin. Simultaneously leaflets of the rooted shoots were tested for expression of the gus gene in a histochemical GUS assay.
# [2] = test system: root segments of Arabidopsis thaliana cv. C24; assay: Arabidopsis root transformation with selection on cyanamide or kanamycin; type: cell-based; conditions: for % Shoots rooting / Nr. of plants (shoots developed into plants and able to root) / Percentage of GUS expressing plants (% of plants staining blue): pMOG 1156
# Protocol: Described below is the method used for transformation of root segments of Arabidopsis thaliana cv. C24 using Agrobacterium tumefaciens. The binary vectors for this transformation method are identical to those described above.
# Six mg of Arabidopsis seeds were germinated in a flask containing liquid Germination Medium (GM) under 16 h light period (1700 lux) at 24° C. and a 8 h dark period at 21° C. at 80 rpm. (The contents of various media can be found in Table 4). Roots of 9 days old seedlings were isolated in a sterile petridish and collected in a drop of Germination Medium (GM). Roots were cut in segments of approximately 3-5 mm and approximately 100 explants were spread evenly on a nylon membrane (O 8 cm) which was placed on plates containing Callus Inducing Medium (CIM). The plates were incubated 3 days under the same conditions as described above.
# The Agrobacterium strain used in this study harbored a rifampicin selection marker in a C 58 chromosomal background. The construction of the helper strain MOG101 is described by Hood et al. (1993).
# Agrobacteria were grown overnight in LB medium with antibiotics (rifampicin 20 mg/l, kanamycin 100 mg/l). The overnight culture was diluted 1:10 in LB without antibiotics and grown for approximately 3 hours. Bacterial suspensions were centrifuged at 1600×g for 15 minutes at room temperature. Bacteria were resuspended in GM and adjusted to OD600=0.1 and used for cocultivation.
# The membrane containing approximately 100 explants was incubated for 2 minutes with the Agrobacterium suspension and dried on sterile filter paper to remove excess of bacteria. The membrane with explants are cultured for 48 h on CIM plates. After rinsing the membrane and explants with liquid GM these were incubated on Shoot Induction Medium (SIM) plates containing several concentrations of cyanamide or kanamycin. After 5 days the membrane with the explants was transferred to the same medium (SIM) for subculture. The second subculture was after 2 weeks. Approximately four weeks after cocultivation 60 shoots per cyanamide concentration were excised and placed on plates with Shoot Elongation Medium (SEM) containing 30 mg/l cyanamide. Shoots which were able to root are tested on their transgenic character by testing leaflets and flowers for expression of the gus gene using a histochemical GUS assay.
# Three experiments were performed. Shoots obtained from Exp. 98-8 and 98-11 were transferred to rooting medium (SEM) containing 30 mg/litre cyanamide. Shoots obtained from Exp. 98-13 were transferred to rooting medium containing the same concentration as the selection medium (SIM), for results see Table 4a. The shoots obtained from the kanamycin selection (50 mg/litre) were transferred to rooting medium containing 25 mg/litre Kanamycin.
# [3] = pMOG410 (gus-nptII), Cyanamide 20 mg/l during regeneration, 30 inoculated explants
# [4] = pMOG410 (gus-nptII), Cyanamide 30 mg/l during regeneration, 30 inoculated explants
# [5] = pMOG410 (gus-nptII), Cyanamide 40 mg/l during regeneration, 30 inoculated explants
# [6] = pMOG874 (cah-nptII), Cyanamide 20 mg/l during regeneration, 35 inoculated explants
# [7] = pMOG874 (cah-nptII), Cyanamide 30 mg/l during regeneration, 35 inoculated explants
# [8] = pMOG874 (cah-nptII), Cyanamide 40 mg/l during regeneration, 35 inoculated explants
# [9] = pMOG1156 (gus-nptII-cah), Cyanamide 20 mg/l during regeneration, 30 inoculated explants
# [10] = pMOG1156 (gus-nptII-cah), Cyanamide 30 mg/l during regeneration, 30 inoculated explants
# [11] = pMOG1156 (gus-nptII-cah), Cyanamide 40 mg/l during regeneration, 30 inoculated explants
# [12] = Experiment 98-8, selection cyanamide 20 mg/litre, rooting medium 30 mg/litre cyanamide
# [13] = Experiment 98-8, selection cyanamide 30 mg/litre, rooting medium 30 mg/litre cyanamide
# [14] = Experiment 98-8, selection cyanamide 40 mg/litre, rooting medium 30 mg/litre cyanamide
# [15] = Experiment 98-8, selection cyanamide 60 mg/litre, rooting medium 30 mg/litre cyanamide
# [16] = Experiment 98-8, selection cyanamide 80 mg/litre, rooting medium 30 mg/litre cyanamide
# [17] = Experiment 98-11, selection cyanamide 20 mg/litre, rooting medium 30 mg/litre cyanamide
# [18] = Experiment 98-11, selection cyanamide 30 mg/litre, rooting medium 30 mg/litre cyanamide
# [19] = Experiment 98-11, selection cyanamide 40 mg/litre, rooting medium 30 mg/litre cyanamide
# [20] = Experiment 98-11, selection cyanamide 50 mg/litre, rooting medium 30 mg/litre cyanamide
# [21] = Experiment 98-11, selection cyanamide 80 mg/litre, rooting medium 30 mg/litre cyanamide
# [22] = Experiment 98-13, selection cyanamide 20 mg/litre, rooting medium same concentration as selection medium
# [23] = Experiment 98-13, selection cyanamide 30 mg/litre, rooting medium same concentration as selection medium
# [24] = Experiment 98-13, selection cyanamide 50 mg/litre, rooting medium same concentration as selection medium
# [25] = Experiment 98-13, selection cyanamide 60 mg/litre, rooting medium same concentration as selection medium
# [26] = Experiment 98-13, selection cyanamide 80 mg/litre, rooting medium same concentration as selection medium
smiles,measurement,setting,value
N#CN [Cyanamide],No. of excised shoots,[1]; [3],0
same,No. of gus + shoots,[1]; [3],0
same,No. of rooting shoots,[1]; [3],0
same,No. of excised shoots,[1]; [4],3
same,No. of gus + shoots,[1]; [4],0
same,No. of rooting shoots,[1]; [4],0
same,No. of excised shoots,[1]; [5],0
same,No. of gus + shoots,[1]; [5],0
same,No. of rooting shoots,[1]; [5],0
same,No. of excised shoots,[1]; [6],2
same,No. of rooting shoots,[1]; [6],0
same,No. of excised shoots,[1]; [7],0
same,No. of rooting shoots,[1]; [7],0
same,No. of excised shoots,[1]; [8],1
same,No. of rooting shoots,[1]; [8],1
same,No. of excised shoots,[1]; [9],0
same,No. of gus + shoots,[1]; [9],0
same,No. of rooting shoots,[1]; [9],0
same,No. of excised shoots,[1]; [10],5
same,No. of gus + shoots,[1]; [10],0
same,No. of rooting shoots,[1]; [10],0
same,No. of excised shoots,[1]; [11],5
same,No. of gus + shoots,[1]; [11],3
same,No. of rooting shoots,[1]; [11],3
same,Speed of shoot regeneration compared with kanamycin,"[2]; PMOG 1156, lower cyanamide concentrations",regeneration of shoots was faster than with kanamycin
same,Regeneration of root explants,"[2]; explants transformed with pMOG 410 (without the cah gene), 20 mg/litre cyanamide",already enough to prevent regeneration
same,Viability of root explants,"[2]; explants transformed with pMOG 410, 50 mg/litre cyanamide and higher",not viable and turned completely brown
same,Callus development of root explants,"[2]; explants transformed with pMOG 410, 20 till 40 mg/litre cyanamide",some callus development was observed
same,Regeneration of root explants,"[2]; explants transformed with the cah gene (PMOG 1156), all cyanamide concentrations, even 80 mg/litre",able to regenerate at all cyanamide concentrations
same,% Shoots rooting,[2]; [12],0%
same,Nr. of plants (shoots developed into plants and able to root),[2]; [12],0
same,% Shoots rooting,[2]; [13],6.3%
same,Nr. of plants (shoots developed into plants and able to root),[2]; [13],4
same,% Shoots rooting,[2]; [14],8.2%
same,Nr. of plants (shoots developed into plants and able to root),[2]; [14],5
same,% Shoots rooting,[2]; [15],8.2%
same,Nr. of plants (shoots developed into plants and able to root),[2]; [15],5
same,% Shoots rooting,[2]; [16],13.8%
same,Nr. of plants (shoots developed into plants and able to root),[2]; [16],9
same,% Shoots rooting,[2]; [17],1.7%
same,Nr. of plants (shoots developed into plants and able to root),[2]; [17],1
same,% Shoots rooting,[2]; [18],3.2%
same,Nr. of plants (shoots developed into plants and able to root),[2]; [18],2
same,% Shoots rooting,[2]; [19],4.5%
same,Nr. of plants (shoots developed into plants and able to root),[2]; [19],3
same,% Shoots rooting,[2]; [20],8.1%
same,Nr. of plants (shoots developed into plants and able to root),[2]; [20],5
same,% Shoots rooting,[2]; [21],15.6%
same,Nr. of plants (shoots developed into plants and able to root),[2]; [21],10
same,% Shoots rooting,[2]; [22],4.8%
same,Nr. of plants (shoots developed into plants and able to root),[2]; [22],3
same,% Shoots rooting,[2]; [23],14.5%
same,Nr. of plants (shoots developed into plants and able to root),[2]; [23],9
same,Nr. of plants (shoots developed into plants and able to root),"[2]; Experiment 98-13, selection cyanamide 40 mg/litre, rooting medium same concentration as selection medium",1
same,% Shoots rooting,[2]; [24],0%
same,Nr. of plants (shoots developed into plants and able to root),[2]; [24],0
same,% Shoots rooting,[2]; [25],6.O
same,Nr. of plants (shoots developed into plants and able to root),[2]; [25],4
same,% Shoots rooting,[2]; [26],11.4%
same,Nr. of plants (shoots developed into plants and able to root),[2]; [26],8
same,Percentage of GUS expressing plants (% of plants staining blue),"[2]; treatment cyanamide 20 mg/litre, C30 in rooting medium",0^1%
same,Percentage of GUS expressing plants (% of plants staining blue),"[2]; treatment cyanamide 20 mg/litre, rooting medium same conc. as treatment",0%
same,Percentage of GUS expressing plants (% of plants staining blue),"[2]; treatment cyanamide 30 mg/litre, C30 in rooting medium",75-100%
same,Percentage of GUS expressing plants (% of plants staining blue),"[2]; treatment cyanamide 30 mg/litre, rooting medium same conc. as treatment",78%
same,Percentage of GUS expressing plants (% of plants staining blue),"[2]; treatment cyanamide 40 mg/litre, C30 in rooting medium",40-100%
same,Percentage of GUS expressing plants (% of plants staining blue),"[2]; treatment cyanamide 40 mg/litre, rooting medium same conc. as treatment",100%
same,Percentage of GUS expressing plants (% of plants staining blue),"[2]; treatment cyanamide 50 mg/litre, C30 in rooting medium",80%
same,Percentage of GUS expressing plants (% of plants staining blue),"[2]; treatment cyanamide 60 mg/litre, C30 in rooting medium",80%
same,Percentage of GUS expressing plants (% of plants staining blue),"[2]; treatment cyanamide 60 mg/litre, rooting medium same conc. as treatment",100%
same,Percentage of GUS expressing plants (% of plants staining blue),"[2]; treatment cyanamide 80 mg/litre, C30 in rooting medium",67-90%
same,Percentage of GUS expressing plants (% of plants staining blue),"[2]; treatment cyanamide 80 mg/litre, rooting medium same conc. as treatment",100%
